Patent US9844566B2, “Pharmaceutical composition for the preparation of infusion solutions of antimicrobial preparations, its production process (variations)” (priority 2011, dated 2017)

Key:
Assay type in all cases: in vivo
[1] = test system: Pseudomonas aeruginosa (ATCC No 27853 F-51); assay: Experimental sepsis model in mice, P. aeruginosa: survival on the seventh day; conditions: for Mice survival rate on the 7th day of infection, P. aeruginosa: mice infected i.v. 5×10^8 CFU/mouse, i.v. treatment daily for 3 days; for Mice survival on the 7th day, absolute values (survival rate/infected animals), P. aeruginosa: survivors/infected mice
Description: (§1) Determination of therapeutic efficiency of antimicrobial agents was done on experimental models of sepsis and methods for statistical treatment of the obtained results (χ^2) according to [R19 and R20].
(§2) Microgerms. Staphylococcus aureus (ATCC No 25923 F-49), Escherichia coli (ATCC No25922 F-50), Pseudomonas aeruginosa (ATCC No 27853 F-51), Candida albicans (ATCC No 24433).
(§3) Animals. The experiments were carried out on hybrid mice (CBA×C57Black/6)CBF1 according to the “Regulations for test animals use” (USSR Ministry of health, order supplement No 755 from Dec. 8, 1977).
(§4) Experimental sepsis models. Tested mice were injected intravenously 0.8 ml of P. aeruginosa daily culture suspension with a dosage 5×10^8 CFU/mouse or S. aureus daily culture suspension with a dosage 10^10 CFU/mouse or E. coli daily culture suspension with a dosage 8×10^8 CFU/mouse or Candida albicans daily culture suspension with a dosage 10^10 CFU/mouse. Mice of a control group were injected the 0.9% solution of NaCl or 5% dextrose solution in the volume of 0.8 ml.
(§5) In a day after being infected, during 3 days, the tested mice were daily intravenously injected with the indicated above antimicrobial preparations, dissolved in 0.9% solution of NaCl or in 5% dextrose solution, as well as their solutions prepared based on the pharmaceutical composition (as described hereinabove).
(§6) All beta-lactams were injected daily in the amount of 0.2 mg/mouse, amikacin sulfate in the amount of 2 mg/mouse daily, vancomycin in the amount of 1 mg/mouse daily, fosfomycin in the amount of 2 mg/mouse daily, and voriconazole in the amount of 0.1 mg/mouse contained in 0.5 ml of solution. Following the same order, the control group was injected with 0.9% NaCl solution or 5% dextrose solution, as well as water solutions of the pharmaceutical composition in the volume of 0.5 ml.
(§7) The antibacterial therapy efficiency was evaluated based on the number of surviving mice on the seventh day after being infected [R19, R20].
(§8) The obtained data shown in Tables 3 and 4 reflect the results of three independent experiments (at least 30 test animals were used for research of each inventive pharmaceutical preparation).

[2] = test system: Staphylococcus aureus (ATCC No 25923 F-49); assay: Experimental sepsis model in mice, S. aureus: survival on the seventh day; conditions: for Mice survival rate on the 7th day of infection, S. aureus: mice infected i.v. 10^10 CFU/mouse, i.v. treatment daily for 3 days; for Mice survival on the 7th day, absolute values (survival rate/infected animals), S. aureus: survivors/infected mice
Description: as §1, §2, §3, §4, §5, §6, §7, §8

[3] = test system: Escherichia coli (ATCC No25922 F-50); assay: Experimental sepsis model in mice, E. coli: survival on the seventh day; conditions: for Mice survival rate on the 7th day of infection, E. coli: mice infected i.v. 8×10^8 CFU/mouse, i.v. treatment daily for 3 days; for Mice survival on the 7th day, absolute values (survival rate/infected animals), E. coli: survivors/infected mice
Description: as §1, §2, §3, §4, §5, §6, §7, §8

[4] = test system: Candida albicans (ATCC No 24433); assay: Experimental mycotic sepsis model in mice, Candida albicans: survival on the seventh day; conditions: for Mice survival rate on the 7th day of infection, Candida albicans: mice infected i.v. 10^10 CFU/mouse, i.v. treatment daily for 3 days; for Mice survival on the 7th day, absolute values (survival rate/infected animals), Candida albicans: survivors/infected mice
Description: as §1, §2, §3, §4, §5, §6, §7, §8

[5] = Table 3 (0.9% NaCl or NaCl:Colloidal silica)
[6] = Table 4 (5% dextrose or Dextrose:Colloidal silica)

| Molecule | Mice survival rate on the 7th day of infection, P. aeruginosa [1, 5] [%] | Mice survival on the 7th day, absolute values (survival rate/infected animals), P. aeruginosa [1, 5] | Mice survival rate on the 7th day of infection, P. aeruginosa [1, 6] [%] | Mice survival on the 7th day, absolute values (survival rate/infected animals), P. aeruginosa [1, 6] | Mice survival rate on the 7th day of infection, S. aureus [2, 5] [%] | Mice survival on the 7th day, absolute values (survival rate/infected animals), S. aureus [2, 5] | Mice survival rate on the 7th day of infection, S. aureus [2, 6] [%] | Mice survival on the 7th day, absolute values (survival rate/infected animals), S. aureus [2, 6] | Mice survival rate on the 7th day of infection, E. coli [3, 5] [%] | Mice survival on the 7th day, absolute values (survival rate/infected animals), E. coli [3, 5] | Mice survival rate on the 7th day of infection, E. coli [3, 6] [%] | Mice survival on the 7th day, absolute values (survival rate/infected animals), E. coli [3, 6] | Mice survival rate on the 7th day of infection, Candida albicans [4, 5] [%] | Mice survival on the 7th day, absolute values (survival rate/infected animals), Candida albicans [4, 5] | Mice survival rate on the 7th day of infection, Candida albicans [4, 6] [%] | Mice survival on the 7th day, absolute values (survival rate/infected animals), Candida albicans [4, 6] |
| --- | --- | --- | --- | --- | --- | --- | --- | --- | --- | --- | --- | --- | --- | --- | --- | --- |
| CO/N=C(\C(=O)N[C@@H]1C(=O)N2C(C(=O)[O-])=C(C[N+]3(C)CCCC3)CS[C@H]12)c1csc(N)n1 [Cefepime/0.9% NaCl solution, cefepime] | 51.6 | (16/31) | 50.0 | (15/30) | 46.7 | (14/30) | 56.7 | (17/30) | 58.1 | (18/31) | 54.4 | (17/31) |  |  |  |  |
| CC[C@H]1OC(=O)[C@H](C)[C@@H](O[C@H]2C[C@@](C)(OC)[C@@H](O)[C@H](C)O2)[C@H](C)[C@@H](O[C@@H]2O[C@H](C)C[C@H](N(C)C)[C@H]2O)[C@](C)(O)C[C@@H](C)CN(C)[C@H](C)[C@@H](O)[C@]1(C)O [Azithromycin/0.9% NaCl solution, azithromycin] |  |  |  |  | 43.3 | (13/30) | 43.3 | (13/30) |  |  |  |  |  |  |  |  |
| C[C@@H]1O[C@@H]1P(=O)(O)O [Fosfomycin/0.9% NaCl solution, fosfomycin] | 30.0 | (9/30) | 35.2 | (15/34) | 36.7 | (11/30) | 43.7 | (14/32) | 43.3 | (13/30) | 46.7 | (14/30) |  |  |  |  |
| CO/N=C(\C(=O)N[C@@H]1C(=O)N2C(C(=O)O)=C(COC(C)=O)CS[C@H]12)c1csc(N)n1 [Cefotaxime/0.9% NaCl solution, cefotaxime] |  |  |  |  | 43.7 | (14/32) | 42.8 | (15/35) | 37.5 | (12/32) | 43.7 | (14/32) |  |  |  |  |
| CC(C)(O/N=C(\C(=O)N[C@@H]1C(=O)N2C(C(=O)[O-])=C(C[n+]3ccccc3)CS[C@H]12)c1csc(N)n1)C(=O)O [Ceftazidime/0.9% NaCl solution, ceftazidime] | 46.7 | (14/30) | 46.8 | (15/32) | 38.7 | (12/31) | 40.0 | (12/30) | 48.4 | (15/31) | 53.3 | (16/30) |  |  |  |  |
| voriconazole [Voriconazole/0.9% NaCl solution] |  |  |  |  |  |  |  |  |  |  |  |  | 45.1 | (14/31) | 46.7 | (14/30) |
| C[C@@H](O)[C@H]1C(=O)N2C(C(=O)O)=C(S[C@@H]3CN[C@H](C(=O)N(C)C)C3)[C@H](C)[C@H]12 [Meropenem/0.9% NaCl solution, meropenem] | 71.8 | (23/32) | 74.4 | (32/43) | 70.9 | (22/31) | 73.8 | (31/42) | 73.8 | (31/42) | 78.0 | (32/41) |  |  |  |  |
| NCC[C@H](O)C(=O)N[C@@H]1C[C@H](N)[C@@H](O[C@H]2O[C@H](CN)[C@@H](O)[C@H](O)[C@H]2O)[C@H](O)[C@H]1O[C@H]1O[C@H](CO)[C@@H](O)[C@H](N)[C@H]1O.O=S(=O)(O)O.O=S(=O)(O)O [Amikacin sulfate/0.9% NaCl solution, amikacin sulfate] |  |  |  |  |  |  |  |  | 48.3 | (15/31) | 46.7 | (14/30) |  |  |  |  |
| ceftriaxone [Ceftriaxone/5% dextrose solution] |  |  |  |  |  |  | 40.6 | (13/32) |  |  | 45.2 | (14/31) |  |  |  |  |
| CN[C@H](CC(C)C)C(=O)N[C@H]1C(=O)N[C@@H](CC(N)=O)C(=O)N[C@H]2C(=O)N[C@H]3C(=O)N[C@H](C(=O)N[C@H](C(=O)O)c4cc(O)cc(O)c4-c4cc3ccc4O)[C@H](O)c3ccc(c(Cl)c3)Oc3cc2cc(c3O[C@@H]2O[C@H](CO)[C@@H](O)[C@H](O)[C@H]2O[C@H]2C[C@](C)(N)[C@H](O)[C@H](C)O2)Oc2ccc(cc2Cl)[C@H]1O [Vancomycin/0.9% NaCl solution, vancomycin] |  |  |  |  | 71.4 | (30/42) | 77.5 | (31/40) |  |  |  |  |  |  |  |  |
| aztreonam [Aztreonam/0.9% NaCl solution] | 67.7 | (21/31) |  |  |  |  |  |  | 70.0 | (21/30) |  |  |  |  |  |  |
